The results in this text go back to patent US20230107216A1, “PANTETHEINE DERIVATIVES AND USES THEREOF” (Comet Therapeutics, Inc., priority 2018, published 2023).

Like-named read-outs stand apart in the source and are kept apart here.

For assay [1], the system named is Methylmalonic Acidemia (MMA) primary fibroblasts Tsi 5224. As to the kind of experiment: Mitochondrial respiration, XFe96 Extracellular Flux Analyzer (OCR/ECAR), MMA fibroblasts Tsi 5224.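 Also: relative to vehicle DMSO control.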 The format is cell-based. The settings on record: Homo sapiens, Fibroblast, read-out: Increase in Maximal Respiratory Capacity AUC. The method, then: The effect of the compounds of the present disclosure on mitochondrial respiration was measured with a XFe96 Extracellular Flux Analyzer (Seahorse Bioscience, Agilent Technologies) and Oxygen consumption Rate (OCR) and Extracellular acidification rate (ECAR) determined.
Cell culture and treatments. Primary adherent fibroblasts were cultured in minimum essential medium (MEM) (Gibco, 25030081) supplemented with 2 mM L-Glutamine (Gibco, 25030081), 15% fetal bovine serum (FBS) (Gibco, 26400044) and 1% penicillin/streptomycin (Gibco, 5140122) at 37° C. and 5% CO2. Cells were collected for either passaging or experiment at ˜70-80% confluence. Cells were obtained by trypsinization and seeded at 20000 cells/well in cell culture microplates (Seahorse Bioscience, 101085-004) and allowed to adhere for 16 hours in culture media.
By profiling different primary cells and/or optimizing their culture media or environmental components one can select cell lines and/or conditions that are appropriate for the biological or disease model. In the present example, 24 hours prior to OCR and ECAR profiling, media was changed to Dulbecco's Modified Eagle Medium (DMEM, Agilent Seahorse 103575-100) with the appropriate supplements for the different primary cells (10 mM glucose, 2 mM L-glutamine, 1 mM pyruvate, 10% FBS; 1 mM glucose, 2 mM L-glutamine, 1 mM pyruvate, 10% FBS; 10 mM glucose, 10% FBS; 5 mM glucose 10% FBS; 1 mM glucose 10% FBS). Cells used in this example were: Propionic Acidemia (PA) (GM00371, GM03590 Coriell Institute for Medical Research, Tsi 6337, Tsi 4626, Tsi 3618 Trans-Hit Bio), Methylmalonic Acidemia (MMA) (GM01673, Coriell Institute for Medical Research, Tsi 5224 Trans-Hit Bio), Branched chain ketoacid dehydrogenase kinase (BCKDK) (GM00612, GM00649 Coriell Institute for Medical Research), Subnormal activation of pyruvate dehydrogenase complex (PDH) (GM01503 Coriell Institute for Medical Research), Very long-chain acyl-CoA dehydrogenase (VLCAD) (GM17475), Leigh Syndrome (LS) (GM03672, GM13411 Coriell Institute for Medical Research), Pyruvate Carboxylase Deficiency (PC) (GM00444 Coriell Institute for Medical Research), Glutaric Acidemia-I (GA) (GM10653), Friedreich's Ataxia (FXN) (GM04078 Coriell Institute for Medical Research, Huntington's disease (HD) (GM21756 Coriell Institute for Medical Research), Ornithine Transcarbamylase Deficiency (OTC) (GM12756 Coriell Institute for Medical Research), Kearns-Sayre Syndrome (KSS) (GM06225 Coriell Institute for Medical Research).
One hour before the assay, the cells were washed with freshly prepared unbuffered serum free-Seahorse XF Assay medium (Seahorse Bioscience, North America, USA, 103575-100) with the same supplements as for the previous 24 hour incubation.
After baseline measurements of OCR, cells were challenged with compounds of the present disclosure at different concentrations (10 to 50 μM) or vehicle (DMSO, 0.1%) and a post-compound baseline was recorded. OCR was measured after sequentially adding to each well 1 μg/ml oligomycin (inhibitor of ATP synthase Sigma-Aldrich, 753531), then maximal OCR was determined with carbonyl cyanide 4-(trifluoromethoxy) phenylhydrazone (FCCP, Sigma-Aldrich, C2920), (uncoupler of oxidative phosphorylation) and 0.5 μM of rotenone (Sigma-Aldrich, R8875) plus antimycin A (Sigma-Aldrich, A8674) (inhibitors of mitochondrial complex I and III) for determination of rotenone-antimycin insensitive respiration together with Hoechst for nuclear staining in situ when normalized to cell counts. After the analysis and nuclear staining, the XFp microplate was transferred to the Cytation 5, and the nuclear images were captured, the individual nuclei were identified and counted by BioTek Gen5 software. Data were expressed as pmol of O2 per minute and normalized by nuclear staining and baselined to pre-compound addition.
Assay conditions were as stated below.
Assay specifics on assay conditions are indicated below when readouts were normalized to cell counts. […]

The test system of assay [2] is monocyte-derived M1 macrophages. As to the kind of experiment: M1 differentiation assay (macrophage TNFα, IL6, IL10 ELISA, FACS). The format is cell-based, human. The conditions noted are these: Homo sapiens, Macrophage. The protocol: Monocytes were isolated by positive isolation with CD14+ microbeads (Miltenyi, 130-050-201). Monocytes were 99% viable and were 96% purity as analyzed by FACS and CD14+ (BD, 563561). 100,000 monocytes along with compounds at the dose of 10 and 50 μM were allowed to differentiate to macrophages with 10 ng/ml GMCSF (R&D, 15-GM-050/CF) in RPMI complete media (Invitrogen, 22400089) with 15% FBS (Hyclone SV30087.03) and 1% Penicillin-Streptomycin (Gibco, 15140-122). On day 2 and 4 half the media was refreshed with fresh GM-CSF and compounds at 10 and 50 μM dose. On day 6 the macrophages were matured with GMCSF, IFNγ (R&D 285-IF-100/CF) and LPS (Sigma, L6143) in the presence of 10 μM and 50 μM of compounds. After 24h, supernatant was collected for the measurement of TNFα (DKW, 1117202) IL6 (DKW, 1110602), IL10 (DKW, 1110003) by ELISA. Macrophages were detached gently on ice with EDTA (Invitrogen, 15575-038) and analyzed by FACS (BD LSR Fortessa, 853492). Cells were stained for live/dead dye, surface and intracellular markers with fixation/permeabilization solution (BD, 554714) and ALIVE/DEAD™ Fixable Near-IR Dead Cell Stain Kit (BD, L34976), mouse anti human CD86 APC (BD, 555660), mouse anti-human CD163 PE (BD, 556018), mouse anti-human CD68 FITC (BD, 562117) or isotype controls anti-mouse IgG1 κ PE (BD, 559320) and anti-mouse IgG1 κ APC (BD, Anti mouse IgG1 κ APC (BD, 55571). Mature M1 macrophages were defined as CD86+CD68+CD163− and increase in TNFα, IL6, and decrease in IL-10.
On the technique in general: An ELISA detects its analyte on a solid surface through an enzyme-linked reagent.

Another assay deals with HepG2 cells. As to the kind of experiment: Mitochondrial membrane potential (MITO-ID MP detection Kit). The assay is classed as cell-based. The settings on record: Homo sapiens, 168 h, 7 days. The method, then: HepG2 cells (ATCC, HB-8065) were cultured (5% CO2 at 37° C.) and plated in Poly-D-Lysine 384-Well plate (Corning, 356663) at a density of 160000 cells/mL in 50 μL/well. Culture and assay media consisted of DMEM (Gibco, 11995-065) supplemented with 1% Penicillin-Streptomycin and 10% FBS (Hyclone, SV30087.03).
MITO-ID® MP detection Kit (ENZ-51018) was used and manufacturer instructions followed. Cells were allowed to settle for 30 min at room temperature and further incubated overnight (37° C. and 5% CO2) for adherence. Next day, test compounds (50-10 μM) and vehicle DMSO (0.2%) were added at the recommended volumes to the 384-well plate for 7 days without media change using a Tecan compound dispenser. All the solutions and wash buffers were prepared and dispensed according to manufacturer's volumes for a 384-well plate format.

Assay [3] deals with primary fibroblasts (healthy controls and PA, MMA, BCKDK, PDH, VLCAD, LS, PC, GA, VLCFA, KSS, FXN, HD). Briefly: Measurement of ROS (H2DCFDA) in primary fibroblasts. The settings on record: Homo sapiens, procedure Example 812. The assay is classed as cell-based, human. The protocol:
Primary adherent fibroblasts were cultured in minimum essential medium (MEM) (Gibco, 25030081) supplemented with 2 mM L-Glutamine (Gibco, 25030081), 15% fetal bovine serum (FBS) (Gibco, 26400044) and 1% penicillin/streptomycin (Gibco, 5140122) at 37° C. and 5% CO2. Cells were collected for either passaging or experiment at ˜70-80% confluence. Cells were obtained by trypsinization and seeded in cell culture microplates either white plate (Thermo Fisher Scientific, 152028) for luminescent measurement or black plate (Thermo Fisher Scientific, 165305) for fluorescent based read out for different assays listed below. Cells were obtained by trypsinization and […] were seeded and allowed to adhere for 16-18 hours to have confluency around 70-80% in the cell well with culture media. After 24 hours prior to measurements (37° C., 5% CO2) media was changed to Dulbecco's Modified Eagle Medium (DMEM, Agilent Seahorse cat #103575-100) with the appropriate supplements as stated below.
Primary fibroblasts assayed were Healthy controls (GM00041, GM05659, GM23974 Coriell Institute for Medical Research), Propionic Acidemia (PA) (GM00371, GM03590 Coriell Institute for Medical Research, Tsi 6337 Trans-Hit Bio), Methylmalonic Acidemia (MMA) (GM01673, Coriell Institute for Medical Research, Tsi 5224, Tsi 4290 Trans-Hit Bio), Branched chain ketoacid dehydrogenase kinase (BCKDK) (GM00612, GM00649 Coriell Institute for Medical Research), Subnormal activation of pyruvate dehydrogenase complex (PDH) (GM01503 Coriell Institute for Medical Research), Very long-chain acyl-CoA dehydrogenase (VLCAD) (GM17475), Leigh Syndrome (LS) (GM03672, GM13411 Coriell Institute for Medical Research), Pyruvate Carboxylase Deficiency (PC) (GM00444 Coriell Institute for Medical Research), Glutaric Acidemia-I (GA), Impaired VLCFA oxidation (VLCFA) (GM13262), Kearns-Sayre Syndrome (KSS) (GM06225 Coriell Institute for Medical Research), Friedreich's Ataxia (FXN), Huntington's disease (HD) (GM21756 Coriell Institute for Medical Research). Next, cells were treated with compounds (10 μM) and ROS H2DCFDA (22 μM) dye for 2 hours in PA, MMA lines and for 24h for the other fibroblast lines. Kinetic read was started immediately with a i3x plate reader (492/527 nm) for 60 minutes.
A total dead cell count was performed as described in Example 817 and only alive cells were used for analysis.

Assay [4] deals with Venular Endothelial cells (HUVEC) (4H system). Briefly: BioMAP 4H system (IL-4 and histamine). The format is cell-based, human. The conditions noted are these: procedure of Example 826; for % decrease in Eotaxin-3: 1 uM.
Assay [5] concerns Peripheral blood mononuclear cells co-cultured with venular endothelial cells (HUVEC) (LPS system). Briefly: BioMAP LPS system. The assay is classed as cell-based, human. The settings on record: Homo sapiens, HUVEC, 24 h, 10 uM, procedure of Example 827.
Where [6] appears, read: Fibroblast, BCKD GM00612, Assay Condition A, read-out: Decreased ROS by at least 10%.

Consider `CC1(C)OC(=O)C(CC(=O)SCCNC(=O)CCNC(=O)[C@H](O)C(C)(C)CO)O1` (stereo partly drawn) [Compound 1238, S-(2-(3-((R)-2,4-dihydroxy-3,3-dimethylbutanamido)propanamido)ethyl) 2-(2,2-dimethyl-5-oxo-1,3-dioxolan-4-yl)ethanethioate], for which the activation at 10 µM in assay [1] (MMA Tsi 5224, assay condition A (10 mM glucose, 2 mM L-glutamine, 1 mM pyruvate, 10% FBS)) was at least 10%. In assay [2] (10 uM, read-out: % decrease in Macrophage TNFα Secretion), the inhibition at 10 µM was at least 30%. Besides, the activation at 50 µM with HepG2 cells (50 uM, read-out: % increase in Mitochondrial Membrane Potential) was 20%.
Consider `CCC(=O)C(C)C(=O)SCCNC(=O)CCNC(=O)[C@H](O)C(C)(C)CO` (stereo partly drawn) [Compound 1251, S-(2-(3-((R)-2,4-dihydroxy-3,3-dimethylbutanamido)propanamido)ethyl) 2-methyl-3-oxopentanethioate], for which the inhibition at 50 µM is at least 30% in assay [2] (read-out: % decrease in Macrophage IL-6 Secretion); at least 30% in assay [2] (read-out: % decrease in Macrophage TNFα Secretion); over 30% in the assay on HepG2 cells (50 uM, read-out: % decrease in Mitochondrial Membrane Potential). Besides, the inhibition at 10 µM in assay [3] (setting [6]) is at least 10%; in assay [3] (Fibroblast, VLCFA GM13262, Assay Condition C, read-out: Decreased ROS by at least 30%) it was at least 30%; in assay [3] (FXN GM04078, Assay Condition C, read-out: Decreased ROS by at least 10%) it was at least 10%; in assay [3] (FXN GM04078, Assay Condition C, read-out: Decreased ROS by at least 30%), at least 30%.
Consider `CC(=O)NCCCC(=O)OCC(C)(C)[C@@H](O)C(=O)NCCC(=O)NCCSC(=O)CC(=O)NCCc1c[nH]cn1` [Compound 633], for which the “% decrease in Eotaxin-3” value in assay [4] was at least 10%.
Consider `CC(C)(CO)[C@@H](O)C(=O)NCCC(=O)NCCS` [Prep Ex 5], for which the inhibition at 10 µM is at least 20% in assay [4] (Homo sapiens, HUVEC, 24 h, 10 uM, read-out: % decrease in E-Selectin); at least 20% in assay [5] (read-out: % decrease in IL-1α); at least 10% in assay [5] (read-out: % decrease in IL-8); at least 10% in assay [5] (read-out: % decrease in TissueFactor). The activation at 10 µM in assay [5] (read-out: % increase in sTNFα) is at least 20%.
As to `CC(C)(CO)[C@@H](O)C(=O)NCCC(=O)NCCSC(=O)C(O)CO` (some centres unmarked) [Compound 399], the activation at 10 µM in assay [1] (MMA Tsi 5224, assay condition D (1 mM glucose, 10% FBS)) was at least 10%. In addition, the inhibition at 10 µM was at least 10% in assay [3] (setting [6]) and over 30% with HepG2 cells (10 uM, read-out: % decrease in Mitochondrial Membrane Potential).
Consider `COC(=O)C[C@H](N)C(=O)SCCNC(=O)CCNC(=O)[C@H](O)C(C)(C)CO` [Compound 451], for which the “% decrease in Eotaxin-3” value in assay [4] was at least 10%.
